Measured values reported in PMC12067145 (ACS Medicinal Chemistry Letters, 2025).

Columns and labels:
[1] = Liver microsome intrinsic clearance (human); type: in vitro ADME; conditions: pH 7.4; human liver microsomes; read-out: LMS CLINT human
Procedure: (§1) After a 5 min preincubation, the reaction was initiated by the addition of NADPH (1 mM). At selected time intervals between 0 ~ 60 min (e.g. 0, 3, 7, 15, 25, 45 and/or 60 min), aliquots were taken and subsequently placed into a 96-well plate containing cold acetonitrile with an internal standard (50 ng/mL carbamazepine). Plates were then centrifuged at 3000 rcf (4 °C) for 10 min, and the supernatant was transferred to a separate 96-well plate and diluted 1:1 with water for LC/MS/MS analysis. The in vitro half-life (T 1/2, min, Eq. 1), intrinsic clearance (CLint, mL/min/kg, Eq. 2), and subsequent predicted hepatic clearance (CLhep, mL/min/kg, Eq. 3) were determined employing the following equations: […]
(§2) where k represents the slope from linear regression analysis of the natural log percent remaining of a test compound as a function of incubation time […]
(§3) (2) CLint = in vitroT1/2 x mg microsomes x gram liver x kg body wt ascale-up factors: of 20 (human) or 45 (rat) or 87.5 (mouse) […]
(§4) where Qh (hepatic blood flow, mL/min/kg) is 21 (human) or 70 (rat) or 90 (mouse).
(§5) LC/MS/MS Bioanalysis of Samples from Plasma Protein Binding and Intrinsic Clearance […]
(§6) Samples were analyzed on a Thermo Electron TSQ Quantum Ultra triple quad mass spectrometer (San Jose, CA) via electrospray ionization (ESI) with two Themo Electron Accella pumps (San Jose, CA), and a Leap Technologies CTC PAL autosampler (Carrboro, NC). Analytes were separated by gradient elution on a dual column system with two Thermo Hypersil Gold (2.1 x 30 mm, 1.9 µm) columns (San Jose, CA) thermostated at 40 °C. HPLC mobile phase A was 0.1% formic acid in water and mobile phase B was 0.1% formic acid in acetonitrile. The gradient started […]
(§7) for 0.2 min; returned to 10% B in 0.1 min. The total run time was 1.3 min and the HPLC flow rate was 0.8 mL/min. While pump 1 ran the gradient method, pump 2 equilibrated the alternate column isocratically at 10% B. Compound optimization, data collection, and processing were performed using Thermo Electron's QuickQuan software (v2.3) and Xcalibur (v2.0.7 SP1). […]

[2] = Liver microsome intrinsic clearance (rat); type: in vitro ADME; conditions: pH 7.4; rat liver microsomes; read-out: LMS CLINT rat
Procedure: as §1, §2, §3, §4, §5, §6, §7

[3] = target: Cav1.2 (Homo sapiens, UniProt Q13936); assay: Cardiac ion channel MPC selectivity panel; type: cell-based
[4] = target: Kir2.1 (Homo sapiens, UniProt P63252); assay: Cardiac ion channel MPC selectivity panel; type: cell-based
[5] = target: Kv1.5 (Homo sapiens, UniProt P22460); assay: Cardiac ion channel MPC selectivity panel; type: cell-based
[6] = target: hERG (Homo sapiens, UniProt Q12809); assay: Cardiac ion channel MPC selectivity panel; type: cell-based
[7] = target: Adrenergic α1D (Homo sapiens, UniProt P25100); assay: Eurofins lead profiling screen (radioligand binding)
[8] = target: Dopamine D4.2 (Homo sapiens, UniProt P21917, DEL265-296); assay: as above
[9] = target: Epidermal Growth Factor (EGF) (Homo sapiens, UniProt P00533); assay: as above
[10] = target: Estrogen ERα (Homo sapiens, UniProt P03372); assay: as above
[11] = system: GABAA, Muscimol, Central; assay: as above; set-up: species or system Rat
[12] = target: Glucocorticoid (Homo sapiens, UniProt P04150); assay: as above
[13] = target: Neuropeptide Y Y1 (Homo sapiens, UniProt P25929); assay: as above
[14] = target: Nicotinic Acetylcholine α1, Bungarotoxin (Homo sapiens, UniProt P02708+P07510+Q07001); assay: biochemical; type: binding; conditions: read-out: % Inhibition at 10 µM
[15] = target: Platelet Activating Factor (PAF) (Homo sapiens, UniProt P25105); assay: Eurofins lead profiling screen (radioligand binding)
[16] = target: hERG potassium channel (Homo sapiens, UniProt Q12809); assay: as above
[17] = target: Serotonin (5-HT1A) (Homo sapiens, UniProt P08908); assay: as above
[18] = target: Serotonin (5-HT3) (Homo sapiens, UniProt P46098); assay: as above
[19] = system: Thyroid Hormone; assay: as above; set-up: species or system Rat
[20] = target: Transporter, Dopamine (DAT) (Homo sapiens, UniProt Q01959); assay: as above
[21] = target: Transporter, Serotonin (SERT) (Homo sapiens, UniProt P31645); assay: as above

Neuropeptide Y Y1, sequence (P25929 whole entry): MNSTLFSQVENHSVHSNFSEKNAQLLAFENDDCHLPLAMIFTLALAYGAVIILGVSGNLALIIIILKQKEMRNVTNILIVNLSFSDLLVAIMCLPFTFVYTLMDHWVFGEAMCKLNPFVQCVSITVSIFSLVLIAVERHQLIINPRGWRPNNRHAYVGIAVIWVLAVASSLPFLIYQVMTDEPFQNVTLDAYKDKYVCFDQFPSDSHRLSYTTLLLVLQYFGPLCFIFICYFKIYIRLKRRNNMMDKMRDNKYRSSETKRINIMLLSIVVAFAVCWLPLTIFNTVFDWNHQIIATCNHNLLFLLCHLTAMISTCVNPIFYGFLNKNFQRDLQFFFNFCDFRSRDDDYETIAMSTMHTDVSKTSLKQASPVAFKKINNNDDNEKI
Nicotinic Acetylcholine α1, Bungarotoxin, sequence (P11230 24-501): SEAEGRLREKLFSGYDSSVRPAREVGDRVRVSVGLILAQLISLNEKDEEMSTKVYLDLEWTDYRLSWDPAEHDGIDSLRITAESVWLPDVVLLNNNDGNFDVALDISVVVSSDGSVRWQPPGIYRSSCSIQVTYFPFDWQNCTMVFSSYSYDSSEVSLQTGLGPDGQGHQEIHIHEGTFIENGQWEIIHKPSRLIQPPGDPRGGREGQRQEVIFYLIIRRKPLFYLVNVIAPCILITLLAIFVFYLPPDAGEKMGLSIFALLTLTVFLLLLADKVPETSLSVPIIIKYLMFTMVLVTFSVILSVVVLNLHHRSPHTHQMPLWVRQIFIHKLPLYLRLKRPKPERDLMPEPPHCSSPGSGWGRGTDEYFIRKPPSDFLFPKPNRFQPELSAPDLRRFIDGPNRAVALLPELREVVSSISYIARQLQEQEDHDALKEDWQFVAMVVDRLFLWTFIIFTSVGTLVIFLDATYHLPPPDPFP
Nicotinic Acetylcholine α1, Bungarotoxin, sequence (P02708 21-457): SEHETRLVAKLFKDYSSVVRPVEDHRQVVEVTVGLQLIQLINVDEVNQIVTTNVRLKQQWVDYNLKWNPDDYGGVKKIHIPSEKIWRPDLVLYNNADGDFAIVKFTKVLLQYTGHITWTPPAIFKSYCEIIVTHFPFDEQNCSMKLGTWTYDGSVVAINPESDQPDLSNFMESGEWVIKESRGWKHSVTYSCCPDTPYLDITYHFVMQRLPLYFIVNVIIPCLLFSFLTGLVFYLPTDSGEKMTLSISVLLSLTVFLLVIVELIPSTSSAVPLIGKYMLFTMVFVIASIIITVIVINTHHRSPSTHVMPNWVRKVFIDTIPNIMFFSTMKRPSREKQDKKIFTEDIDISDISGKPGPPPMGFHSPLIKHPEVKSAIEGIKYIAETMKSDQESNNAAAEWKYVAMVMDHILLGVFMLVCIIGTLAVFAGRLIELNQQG
Nicotinic Acetylcholine α1, Bungarotoxin, sequence (P07510 23-517): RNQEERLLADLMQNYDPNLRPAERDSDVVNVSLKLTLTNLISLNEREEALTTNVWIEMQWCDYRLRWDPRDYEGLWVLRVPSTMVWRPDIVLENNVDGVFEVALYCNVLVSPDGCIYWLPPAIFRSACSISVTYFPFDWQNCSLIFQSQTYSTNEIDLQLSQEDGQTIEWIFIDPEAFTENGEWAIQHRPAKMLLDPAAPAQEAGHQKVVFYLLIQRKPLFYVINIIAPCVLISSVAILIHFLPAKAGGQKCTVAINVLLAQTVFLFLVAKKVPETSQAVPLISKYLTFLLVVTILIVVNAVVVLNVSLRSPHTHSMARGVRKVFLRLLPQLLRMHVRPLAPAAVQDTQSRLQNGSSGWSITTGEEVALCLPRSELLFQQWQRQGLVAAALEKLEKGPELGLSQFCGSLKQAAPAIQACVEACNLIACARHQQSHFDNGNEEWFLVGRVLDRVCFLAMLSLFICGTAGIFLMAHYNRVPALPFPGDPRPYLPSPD
Nicotinic Acetylcholine α1, Bungarotoxin, sequence (Q07001 22-517): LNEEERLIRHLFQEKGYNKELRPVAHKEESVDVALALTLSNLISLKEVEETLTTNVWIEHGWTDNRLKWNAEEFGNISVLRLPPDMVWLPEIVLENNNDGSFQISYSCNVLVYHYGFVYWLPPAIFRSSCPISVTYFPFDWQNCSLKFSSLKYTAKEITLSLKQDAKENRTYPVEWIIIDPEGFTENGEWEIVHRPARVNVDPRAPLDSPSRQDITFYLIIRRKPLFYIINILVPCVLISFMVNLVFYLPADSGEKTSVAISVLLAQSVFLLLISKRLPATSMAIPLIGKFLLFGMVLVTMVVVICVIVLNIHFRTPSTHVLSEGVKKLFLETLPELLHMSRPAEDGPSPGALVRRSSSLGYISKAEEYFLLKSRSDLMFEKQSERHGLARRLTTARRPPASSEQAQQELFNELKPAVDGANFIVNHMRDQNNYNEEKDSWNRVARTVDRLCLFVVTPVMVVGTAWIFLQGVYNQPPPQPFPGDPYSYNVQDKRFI
hERG potassium channel, sequence (Q12809 whole entry): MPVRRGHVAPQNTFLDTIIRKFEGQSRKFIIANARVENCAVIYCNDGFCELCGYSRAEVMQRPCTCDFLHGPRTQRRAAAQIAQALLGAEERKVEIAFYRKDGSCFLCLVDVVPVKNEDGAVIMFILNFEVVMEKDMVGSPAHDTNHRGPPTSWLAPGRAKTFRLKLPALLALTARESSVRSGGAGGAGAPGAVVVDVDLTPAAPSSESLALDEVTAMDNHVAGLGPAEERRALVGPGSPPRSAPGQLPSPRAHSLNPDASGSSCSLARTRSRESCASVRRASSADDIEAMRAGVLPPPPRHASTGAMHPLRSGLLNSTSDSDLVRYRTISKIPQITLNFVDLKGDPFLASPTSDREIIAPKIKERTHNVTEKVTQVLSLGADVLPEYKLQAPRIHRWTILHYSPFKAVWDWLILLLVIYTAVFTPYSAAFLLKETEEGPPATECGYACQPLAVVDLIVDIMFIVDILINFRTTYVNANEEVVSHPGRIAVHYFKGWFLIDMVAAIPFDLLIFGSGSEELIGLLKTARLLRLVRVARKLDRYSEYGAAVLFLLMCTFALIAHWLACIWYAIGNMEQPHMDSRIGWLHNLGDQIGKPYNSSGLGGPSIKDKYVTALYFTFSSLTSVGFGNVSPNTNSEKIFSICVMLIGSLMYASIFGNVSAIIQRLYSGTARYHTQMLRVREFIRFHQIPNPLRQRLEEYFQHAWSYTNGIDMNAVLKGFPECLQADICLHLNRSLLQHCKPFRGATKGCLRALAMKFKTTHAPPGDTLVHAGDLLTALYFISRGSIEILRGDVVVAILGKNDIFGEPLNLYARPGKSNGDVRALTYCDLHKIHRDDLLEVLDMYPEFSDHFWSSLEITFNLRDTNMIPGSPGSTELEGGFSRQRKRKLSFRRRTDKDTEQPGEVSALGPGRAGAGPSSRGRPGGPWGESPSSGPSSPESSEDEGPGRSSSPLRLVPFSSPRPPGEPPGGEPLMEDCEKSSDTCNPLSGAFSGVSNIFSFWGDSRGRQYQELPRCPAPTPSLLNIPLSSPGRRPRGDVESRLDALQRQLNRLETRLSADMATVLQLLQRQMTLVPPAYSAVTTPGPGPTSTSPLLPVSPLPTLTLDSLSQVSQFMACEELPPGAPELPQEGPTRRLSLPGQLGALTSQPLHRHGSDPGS
hERG, sequence (Q12809 whole entry): as above
Serotonin (5-HT1A), sequence (P08908 whole entry): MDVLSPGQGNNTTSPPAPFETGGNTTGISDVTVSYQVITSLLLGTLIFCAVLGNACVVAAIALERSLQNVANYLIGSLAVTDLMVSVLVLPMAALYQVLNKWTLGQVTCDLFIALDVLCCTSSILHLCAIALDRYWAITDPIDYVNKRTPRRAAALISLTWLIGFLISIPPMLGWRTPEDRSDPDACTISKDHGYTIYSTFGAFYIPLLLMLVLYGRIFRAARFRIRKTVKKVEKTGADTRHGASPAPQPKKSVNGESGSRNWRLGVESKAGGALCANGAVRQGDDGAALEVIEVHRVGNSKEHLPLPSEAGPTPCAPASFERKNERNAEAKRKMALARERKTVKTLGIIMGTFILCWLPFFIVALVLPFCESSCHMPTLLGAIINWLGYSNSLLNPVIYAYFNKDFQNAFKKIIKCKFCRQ

For `Cc1cc(C#Cc2ccc(F)cc2)cnc1NC(=O)c1cc(NC(=O)OC(C)(C)C)ccc1Cl` [Compound 14c], the CLint scaled at 1 µM [1] was 7.5 mL/min/kg, the CLint scaled at 1 µM [2] was 29 mL/min/kg and the “% at 10 μM, Cav1.2” value [3] was less than 50%. For the same compound, the “% at 10 μM, Kir2.1” value [4] was less than 50%, the “% at 10 μM, Kv1.5” value [5] was less than 50% and the “% at 10 μM, hERG” value [6] was less than 50%.
`O=C(NCc1ccc(OC(F)(F)F)cc1F)c1ccc2ncnn2c1` [ONO-2920632] showed an inhibition at 10 µM [7] of 26%, an inhibition at 10 µM [8] of 5% and an inhibition at 10 µM [9] of -2%. For the same compound, the inhibition at 10 µM [10] was 8%, the “% Inhibition at 10 µM” value [11] was 2% and the inhibition at 10 µM [12] was -4%. The inhibition at 10 µM [13] was 15%, the inhibition at 10 µM [14] was -4% and the inhibition at 10 µM [15] was 26%. It also gave an inhibition at 10 µM [16] of 39%, an inhibition at 10 µM [17] of 4% and an inhibition at 10 µM [18] of -4%. For the same compound, the “% Inhibition at 10 µM” value [19] was 3%, the inhibition at 10 µM [20] was 23% and the inhibition at 10 µM [21] was -3%.
